Source: patent US6291247A, “Methods of screening for factors that disrupt neurotrophin conformation and reduce neurotrophin biological activity” (priority 1996, dated 2001)
Entries after “also recorded” stand apart in the source; their conditions may differ. Bridges are numbered along the chain shown (N, C = ends).

What was measured:
[1] = target: T1, NGF (Mus musculus, UniProt P01139); assay: Circular dichroism of NGF; details: 100 μM, 22° C.
T1 construct: homodimer
Procedure: For conformation and dimer integrity studies, 0.1 nM ^125 I-NGF was incubated in the presence or absence of Zn^2+ in HKR buffer for 2 hours at 4° C. in a total volume of 0.1 ml. For crosslinking NGF […], 0.4 mM BS^3 was added to the mixture and incubated for 30 minutes at 25° C. The reaction was quenched with reducing SDS PAGE sample buffer, electrophoresed using a linear 15% acrylamide gel and autoradiographed. To assess the dimeric nature of NGF in the presence of Zn^2+, ^125 I-NGF was electrophoresed in a non-reducing SDS PAGE system as described, autoradiographed, and the labelled proteins excised from the gels and counted. For CD studies, NGF (50 μg/ml) was dissolved in 50 mM Tris-HCl buffer and spectra recorded using a computer controlled Jasco J-600 spectropolarimeter. Samples were acquired in the absence or presence of Zn^2+ (100 μM) at 22° C. in a 2 mm quartz cell averaged over eight scans. Modification of His residues by DEPC was carried out as previously described, where the molar excess of DEPC added and the extent of reaction was determined by evaluating the loss of binding activity of the modified product.

[2] = tested on: DRG neurons; assay: NGF-mediated neurite outgrowth of DRG neurons, metal ions; type: cell-based, chick; details: 50 and 100 μM
Procedure: Dissosiated cells enriched for sensory neurons were prepared from ED8 chick DRG as described (Dostaler, S. M. et al. Characterization of a distinctive motif of the low molecular weight neurotrophin receptor that modulates NGF-mediated neurite growth. Eur. J. Neurosci. 8, 870-879 (1996)). Neurons were seeded at a density of 800-1000 cells/well in Ham's F-12 containing 5% FCS and NGF at 10 pM into wells of Terasaki plates treated with polyysine. The cells were incubated with the indicated additives at 37° C. in a 5% CO2 atmosphere. The cells on the entire lower horizontal surface of the well were scored for neurite growth at 18-20 hours using an inverted microscope fitted with phase contrast optics. A neurite was scored if its caliber from the origin to terminal was constant and its length was equal to or greater than 1.5 cell body diameters. Neurite growth was corrected for background (no NGF).

[3] = tested on: p75^NTR /TrkA; assay: Receptor crosslinking of 125I-NGF with transition metal ions (receptor selectivity); type: binding
Procedure: To explore the ability of other transition metals to influence the biological activities of NGF, a series of cations known to mimic in certain respects the binding of zinc to proteins were tested. […] For this reason these ions were not tested in NGF- dependant growth phenomena. […] As these studies appeared to indicate potentially complex results upon metal ions binding to NGF, a receptor crosslinking system where specific receptor types could be identified was utilized.

[4] = target: T1, NGF; assay: NGF protomer crosslinking with BS3 (NGF conformation), metal ions; type: biochemical
Procedure: For crosslinking NGF […], 0.4 mM BS^3 was added to the mixture and incubated for 30 minutes at 25° C. […] For CD studies, NGF (50 μg/ml) was dissolved in 50 mM Tris-HCl buffer and spectra recorded using a computer controlled Jasco J-600 spectropolarimeter. Samples were acquired in the absence or presence of Zn^2+ (100 μM) at 22° C. in a 2 mm quartz cell averaged over eight scans. Modification of His residues by DEPC was carried out as previously described, where the molar excess of DEPC added and the extent of reaction was determined by evaluating the loss of binding activity of the modified product.

[5] = tested on: T2, p75^NTR and TrkA; assay: Binding of 125I-NGF to PC12 cells (p75NTR + TrkA); parameters: species or system rat; details: 100 μM; CaEDTA together with Zn2+
T2 construct: these cells express both NGF receptor types; endogenous in cells; host or cells: PC12 rat pheochromocytoma cells
Procedure: (§1) PC12 cells were grown in RPMI with 10% heat inactivated donor horse serum and 5% fetal calf serum. […] The tubes were incubated for 2 hr at 4° C. and 100 μl aliquots (providing triplicate data points for each sample) were transferred to 400 μl microcentrifuges containing 200 μl of 10% glycerol in HKR. Tubes were centrifuged for 2 minutes at 5,000 rpm, the tip containing the cell pellet cut off and radioactivity bound to the cells was determined.
T2 sequence (P01139 122-239): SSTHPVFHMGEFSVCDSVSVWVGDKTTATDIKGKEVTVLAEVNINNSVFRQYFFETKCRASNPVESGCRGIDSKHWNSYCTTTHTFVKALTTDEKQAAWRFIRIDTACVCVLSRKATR

[6] = target: T3, p75^NTR and TrkA (Mus musculus, UniProt P01139); assay: Binding of 125I-NGF to PC12 cells (p75NTR + TrkA); parameters: species or system rat; details: 120 min; for steady-state specific binding of 125I-NGF (0.5 nM) to p75NTR and TrkA: ± SEM
T3 construct: these cells express both NGF receptor types; endogenous in cells; host or cells: PC12 rat pheochromocytoma cells
Procedure: as §1

[7] = tested on: p75^NTR and TrkA; assay: Binding of 125I-NGF to PC12 cells (p75NTR + TrkA); parameters: species or system rat; details: above 100 μM
Procedure: as §1

[8] = tested on: p75^NTR; assay: 125I-NT-3 binding to p75NTR; details: 100 μM Zn2+, n = 3; 120 min
Procedure: Full length (1-118) mouse NGF purified by HPLC from 2.5S NGF (purity greater than 95%) was obtained from Cedarlane Laboratories (Toronto, Ont). The iodination of NGF was performed as previously described (Sutter, A, Riopelle, R. J., Harris-Warrick, R. M. & Shooter, E. M. Nerve growth factor receptors. J. Biol. Chem. 254, 5972-5982 (1979)). […] PC12 cells were grown in RPMI with 10% heat inactivated donor horse serum and 5% fetal calf serum. Each data point was set up in a single tube containing ^125 I-NGF (at the required concentration), 400,000 cells (for a final call concentration of 10^6 /ml), BDNF (at 40 nM for TrkA binding) and NGF (at 10 nM for non-specific binding) as required. The tubes were incubated for 2 hr at 4° C. and 100 μl aliquots (providing triplicate data points for each sample) were transferred to 400 μl microcentrifuges containing 200 μl of 10% glycerol in HKR. Tubes were centrifuged for 2 minutes at 5,000 rpm, the tip containing the cell pellet cut off and radioactivity bound to the cells was determined.
Human recombinant BDNF and human recombinant NT-3 were obtained from Alomone Laboratories (Israel). The iodination, crosslinking, and binding experiments using BDNF and NT-3 were performed using the methods described above for NGF. Neurite outgrowth assays were performed as described in the presence of 4.0 nM NT-3 or 8.0 nM BDNF.

[9] = tested on: DRG neurons; assay: Survival of chick DRG neurons at 24 hours; type: cell-based; details: 500 μM
[10] = tested on: NT-3; details: Rashid et al. 1995; cited from earlier work

T3 sequence (P01139 122-239): as above
T1 sequence (P01139 122-239): as above
Chain of p75^NTR /TrkA (P01139 122-239): as above
Chain of p75^NTR /TrkA (P07174 30-425 partner): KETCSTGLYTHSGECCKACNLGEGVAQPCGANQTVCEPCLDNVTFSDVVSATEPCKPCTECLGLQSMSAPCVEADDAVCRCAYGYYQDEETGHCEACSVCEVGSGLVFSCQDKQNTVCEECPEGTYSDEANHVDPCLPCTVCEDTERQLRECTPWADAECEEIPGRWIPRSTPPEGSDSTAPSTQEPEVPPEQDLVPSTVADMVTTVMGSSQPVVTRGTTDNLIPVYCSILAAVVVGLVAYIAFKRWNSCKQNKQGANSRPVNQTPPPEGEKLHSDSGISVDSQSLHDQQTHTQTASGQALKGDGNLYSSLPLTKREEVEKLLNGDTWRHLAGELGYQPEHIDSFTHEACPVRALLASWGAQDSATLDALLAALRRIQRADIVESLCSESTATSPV
Chain of p75^NTR /TrkA (P35739 33-799 partner): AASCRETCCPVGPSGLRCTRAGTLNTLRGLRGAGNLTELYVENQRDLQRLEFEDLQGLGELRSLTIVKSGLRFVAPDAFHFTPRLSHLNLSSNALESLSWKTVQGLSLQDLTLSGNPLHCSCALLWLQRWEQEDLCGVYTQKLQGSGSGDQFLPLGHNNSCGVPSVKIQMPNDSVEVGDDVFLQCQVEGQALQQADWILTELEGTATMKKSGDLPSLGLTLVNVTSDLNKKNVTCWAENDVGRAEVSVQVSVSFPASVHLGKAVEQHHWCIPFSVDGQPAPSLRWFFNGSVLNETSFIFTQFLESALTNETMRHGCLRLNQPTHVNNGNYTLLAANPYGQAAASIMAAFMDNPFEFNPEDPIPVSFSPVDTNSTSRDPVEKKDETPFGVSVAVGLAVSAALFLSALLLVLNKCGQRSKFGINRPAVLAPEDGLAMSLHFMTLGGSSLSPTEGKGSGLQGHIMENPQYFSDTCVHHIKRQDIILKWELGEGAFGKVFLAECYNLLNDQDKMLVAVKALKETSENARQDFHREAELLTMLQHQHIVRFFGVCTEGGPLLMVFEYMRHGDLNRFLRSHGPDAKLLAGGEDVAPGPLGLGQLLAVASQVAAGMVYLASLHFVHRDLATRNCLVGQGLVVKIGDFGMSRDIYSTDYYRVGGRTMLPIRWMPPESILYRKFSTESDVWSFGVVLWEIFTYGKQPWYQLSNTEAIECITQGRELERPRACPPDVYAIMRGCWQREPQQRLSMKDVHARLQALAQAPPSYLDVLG

| Compound | Mean molar ellipticity of NGF by CD [1] | NGF-induced neurite extension [2] | Blocking of NGF binding to TrkA and p75NTR in receptor crosslinking [3] | Crosslinking of 125I-NGF to larger complexes (BSA or ovalbumin) [4] | NGF monomer crosslinking by BS3 ([4]; 0.1 nM 125I-NGF, CaEDTA together with Zn2+) | NGF Protomer Conformation (active/inactive) ([4]; 100 μM) | Crosslinking of NGF promoters after His modification (DEPC) ([4]; DEPC-modified NGF) | Inhibition of 125I-NGF binding [5] | steady-state specific binding of 125I-NGF (0.5 nM) to p75NTR and TrkA ([6]; 10 μM) [% Control] | steady-state specific binding of 125I-NGF (0.5 nM) to p75NTR and TrkA ([6]; 30 μM) [% Control] | steady-state specific binding of 125I-NGF (0.5 nM) to p75NTR and TrkA ([6]; 50 μM) [% Control] | Total Binding to PC12 cells ([6]; 100 μM, 125I-NGF) [% control] | steady-state specific binding of 125I-NGF (0.5 nM) to p75NTR and TrkA ([6]; 100 μM) [% Control] | Non-specific binding of 125I-NGF [7] | % Maximum p75NTR binding, 125I-NT-3 [8] [% Maximum binding] | Survival of neurons at 24 hours [9] | Antagonism of NT-3 in vitro [10] |
| --- | --- | --- | --- | --- | --- | --- | --- | --- | --- | --- | --- | --- | --- | --- | --- | --- | --- |
| [Zn+2] [Zn^2+] | significant decrease | inhibited neurite extension | blocked binding to both receptors | promoted | NGF monomer crosslinking was inhibited | active | not affected by Zn^2+; also recorded: abolished | effectively blocked binding | 88 ± 13 | 82 ± 10 | 44 ± 13 | 21 ± 5 | 19 ± 9 | altered non-specific binding | 13.3 ± 9.5 | – | – |
| NH2 -Cys-Gly-Ser-Glu-Val-Pro-Asn-Ser-Ala-Arg-Cys-Cys-Val-Cys-OH (H-CGSEVPNSARCCVC-OH; disulfide 1-14, 11-12) [R11, bicyclic peptide of NGF residues 68-58/108-110, two disulfide bonds] | – | – | – | – | – | – | – | – | – | – | – | – | – | – | – | not influenced | effective antagonist |
